Results as given in US20080227870A1, “Carcinogen Solvents in Reducing the Carcinogen Concentration of Cells” (priority 2004, published 2008).

Test system: human fibroplasts
Assay: Membrane integrity test with a vital dye after exposure to perfluorocarbon liquid
Format: cell-based
Settings: biological compatibility statement for the used examples

Structure (SMILES) | toxicity to the cell
FC1(F)C(F)(F)C(F)(F)C2(F)C(F)(F)C(F)(F)C(F)(F)C(F)(F)C2(F)C1(F)F (centres unmarked) [perfluorodecalin] | non-toxic
FC(F)(F)C(F)(F)C(F)(F)C(F)(F)C(F)(F)C(F)(F)C(F)(F)C(F)(F)Br [perfluorooctylbromide] | non-toxic
